The series concerns rodent carcinogenicity bioassays, tumor incidence. Kind of series: CCRIS carcinogenicity studies. Put shortly:
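NCI-built, expert-reviewed records of carcinogenicity and related test outcomes (mutagenicity, tumor promotion/inhibition) compiled from published and report sources, historical span 1985-2011, not updated.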

The mark [1] stands for this setting: Species: MOUSE, Strain/Sex: CD-1/FEMALE, Route: SUBCUTANEOUS, Dose: 0, 2 UG/D IN CORN OIL ON DAYS 1-5 OF LIFE (STUDY DURATION: 12-18 WK), Tumor Site: Type of Lesion: UTERUS: ADENOCARCINOMA

Drawing on PubChem BioAssay AID1259411 (Chemical Carcinogenesis Research Information System (CCRIS), 2018), this text covers carcinogen call for ten molecules.

Activity calls are given as the source filed them. No rule for the calls is given here.

With `C[C@]12CC[C@@H]3c4cc(O)c(O)cc4CC[C@H]3[C@@H]1CC[C@@H]2O`, the carcinogen call under setting [1] was “active; positive”.

Consider `Cl/C=C\CCl`, for which the carcinogen call (Species: MOUSE, Strain/Sex: ICR/FEMALE, Route: SUBCUTANEOUS, Dose: 3.0 MG/INJ IN 0.05 ML TRIOCTANOIN 1/WK, Tumor Site: Type of Lesion: INJECTION SITE: FIBROSARCOMA) was “active; positive”.

On to `CCOP(=S)(OCC)Oc1nc(Cl)n(C(C)C)n1`, for which the carcinogen call (Species: Mouse, Strain/Sex: Crl:CD-1(ICR)BR/Female (60/Group), Route: Oral, Dose: 0, 0.3, 1.0, 30, 300 ppm of 94.9% of isazophos in diet for 18 mo, study duration 18 mo, Dose: 0, 0.3, 1.0, 30, 300 ppm of 94.9% of isazophos in diet for 18 mo, study duration 18 mo) is “inactive; negative”; the carcinogen call (Species: Mouse, Strain/Sex: Crl:CD-1(ICR)BR/Male (60/Group), Route: Oral, Dose: 0, 0.3, 1.0, 30, 300 ppm (reduced to 250 at wk 23) ppm of 94.9% of isazophos in diet for 18 mo, study duration 18 mo, Dose: 0, 0.3, 1.0, 30, 300 ppm (reduced to 250 at wk 23) ppm of 94.9% of isazophos in diet for 18 mo, study duration 18 mo) was “inactive; negative”; the carcinogen call (Species: Rat, Strain/Sex: Crl:CD(SD)BR/Female (60/Group), Route: Oral, Dose: 0, 0.1, 1.0, 300 reduced to 250 at wk 22 and then to 200 ppm at wk 66 of 94.9% of isazophos in diet for 24 mo, study dur, Dose: 0, 0.1, 1.0, 300 reduced to 250 at wk 22 and then to 200 ppm at wk 66 of 94.9% of isazophos in diet for 24 mo, study dur) was “inactive; negative”; the carcinogen call (Species: Rat, Strain/Sex: Crl:CD(SD)BR/Male (60/Group), Route: Oral, Dose: 0, 0.1, 1.0, 300 ppm of 94.9% of isazophos in diet for 24 mo, study duration 24 mo, Dose: 0, 0.1, 1.0, 300 ppm of 94.9% of isazophos in diet for 24 mo, study duration 24 mo) was “inactive; negative”.

Consider `Cl[C@@H]1C2(Cl)C3C4[C@@H]5O[C@@H]5[C@H]5C3[C@@](Cl)(C2(Cl)Cl)[C@]1(Cl)[C@@H]45` (stereo partly drawn), for which the carcinogen call (Species: MOUSE, Strain/Sex: B6C3F1/FEMALE, Route: ORAL, Dose: 0, 0.32, 0.64 PPM IN DIET, Dose: 0, 0.32, 0.64 PPM IN DIET) is “inactive; negative”; the carcinogen call (Species: MOUSE, Strain/Sex: B6C3F1/MALE, Route: ORAL, Dose: 0, 0.32, 0.64 PPM IN DIET, Dose: 0, 0.32, 0.64 PPM IN DIET) was “inactive; negative”; the carcinogen call (Species: RAT, Strain/Sex: OSBORNE-MENDEL/FEMALE, Route: ORAL, Dose: 0, 3.4, 7.5 PPM IN DIET, TWA, Dose: 0, 3.4, 7.5 PPM IN DIET, TWA) was “inactive; negative”; the carcinogen call (Species: RAT, Strain/Sex: OSBORNE-MENDEL/MALE, Route: ORAL, Dose: 0, 5, 10 PPM IN DIET, Dose: 0, 5, 10 PPM IN DIET) is “inactive; negative”.

Regarding `O=C1C2(Cl)C3(Cl)C4(Cl)C(Cl)(Cl)C5(Cl)C3(Cl)C1(Cl)C5(Cl)C24Cl` (stereo not drawn), the carcinogen call by setting is: (Species: MOUSE, Strain/Sex: B6C3F1/FEMALE, Route: ORAL, Dose: 20, 40 MG/KG IN DIET, TWA, Tumor Site: Type of Lesion: LIVER: HEPATOCELLULAR CARCINOMA) “active; positive”; (Species: MOUSE, Strain/Sex: B6C3F1/MALE, Route: ORAL, Dose: 20, 23 MG/KG IN DIET, TWA, Tumor Site: Type of Lesion: LIVER: HEPATOCELLULAR CARCINOMA) “active; positive”; (Species: RAT, Strain/Sex: OSBORNE-MENDEL/FEMALE, Route: ORAL, Dose: 18, 26 MG/KG IN DIET, TWA, Tumor Site: Type of Lesion: LIVER: HEPATOCELLULAR CARCINOMA) “active; positive”; (Species: RAT, Strain/Sex: OSBORNE-MENDEL/MALE, Route: ORAL, Dose: 8, 24 MG/KG IN DIET, TWA, Tumor Site: Type of Lesion: LIVER: HEPATOCELLULAR CARCINOMA) “active; positive”.

In the case of `O=C1OC2(c3ccccc31)c1ccc(O)c(I)c1Oc1c2ccc(O)c1I`, the carcinogen call was “inactive; negative” (Species: MOUSE, Strain/Sex: ICR/FEMALE, Route: DERMAL, Dose: 0, 1 MG IN 0.1 ML DISTILLED WATER 2/WK FOR A MEAN TOTAL DOSE OF 132.6 MG (STUDY DURATION: 18 MO)) and “inactive; negative” (Species: MOUSE, Strain/Sex: ICR/MALE, Route: DERMAL, Dose: 0, 1 MG IN 0.1 ML DISTILLED WATER 2/WK FOR A MEAN TOTAL DOSE OF 132.6 MG (STUDY DURATION: 18 MO)).

With `Cn1c(CCCC(=O)O)nc2cc(N(CCCl)CCCl)ccc21`, the carcinogen call (Species: MOUSE, Strain/Sex: AB/JENA/FEMALE, Route: INTRAPERITONEAL, Dose: 0, 12.5, 25 MG/KG IN 2 ML SALINE 1/D FOR 4 D FOR A TOTAL DOSE OF 0, 50, 100 MG/KG, Dose: 0, 12.5, 25 MG/KG IN 2 ML SALINE 1/D FOR 4 D FOR A TOTAL DOSE OF 0, 50, 100 MG/KG, Tumor Site: Type of Lesion: PERITONEUM: SARCOMA) is “active; positive” and the carcinogen call (Species: MOUSE, Strain/Sex: AB/JENA/FEMALE, Route: ORAL, Dose: 0, 62.5 MG/KG IN 0.25 ML WATER 1/D FOR 4 D FOR A TOTAL DOSE OF 0, 250 MG/KG, Dose: 0, 62.5 MG/KG IN 0.25 ML WATER 1/D FOR 4 D FOR A TOTAL DOSE OF 0, 250 MG/KG, Tumor Site: Type of Lesion: LUNG: ADENOMA) is “active; positive”.

For `O=C(O)c1ccc([N+](=O)[O-])cc1`, the carcinogen call runs as follows: (Species: MOUSE, Strain/Sex: B6C3F1/FEMALE, Route: ORAL, Dose: 0, 1250, 2500, 5000 PPM IN DIET FOR 103 WK (STUDY DURATION: 104 WK), Dose: 0, 1250, 2500, 5000 PPM IN DIET FOR 103 WK (STUDY DURATION: 104 WK)) “inactive; negative”; (Species: MOUSE, Strain/Sex: B6C3F1/MALE, Route: ORAL, Dose: 0, 1250, 2500, 5000 PPM IN DIET FOR 103 WK (STUDY DURATION: 104 WK), Dose: 0, 1250, 2500, 5000 PPM IN DIET FOR 103 WK (STUDY DURATION: 104 WK)) “inactive; negative”; (Species: RAT, Strain/Sex: F344/FEMALE, Route: ORAL, Dose: 0, 1250, 2500, 5000 PPM IN DIET FOR 103 WK (STUDY DURATION: 104 WK), Dose: 0, 1250, 2500, 5000 PPM IN DIET FOR 103 WK (STUDY DURATION: 104 WK), Tumor Site: Type of Lesion: CLITORAL GLAND: ADENOMA, ADENOMA OR CARCINOMA) “active; positive”; (Species: RAT, Strain/Sex: F344/MALE, Route: ORAL, Dose: 0, 1250, 2500, 5000 PPM IN DIET FOR 103 WK (STUDY DURATION: 104 WK), Dose: 0, 1250, 2500, 5000 PPM IN DIET FOR 103 WK (STUDY DURATION: 104 WK)) “inactive; negative”.

On to `COc1ccc(C)cc1N`, for which the carcinogen call (Species: MOUSE, Strain/Sex: B6C3F1/FEMALE, Route: ORAL, Dose: 0, 0.22, 0.44% TWA, IN DIET FOR 104 WK (STUDY DURATION: 97-106 WK), Dose: 0, 0.22, 0.44% TWA, IN DIET FOR 104 WK (STUDY DURATION: 97-106 WK), Tumor Site: Type of Lesion: LIVER: HEPATOCELLULAR CARCINOMA, HEPATOCELLULAR CARCINOMA OR ADENOMA, URINARY BLADDER: TRANSITIONAL CELL CARCINOMA OR CA) was “active; positive”; the carcinogen call (Species: MOUSE, Strain/Sex: B6C3F1/MALE, Route: ORAL, Dose: 0, 0.22, 0.46% TWA, IN DIET FOR 92-104 WK (STUDY DURATION: 92-106 WK), Dose: 0, 0.22, 0.46% TWA, IN DIET FOR 92-104 WK (STUDY DURATION: 92-106 WK), Tumor Site: Type of Lesion: URINARY BLADDER: SQUAMOUS CELL CARCINOMA OR TRANSITIONAL CELL CARCINOMA) is “active; positive”; the carcinogen call (Species: RAT, Strain/Sex: F344/FEMALE, Route: ORAL, Dose: 0, 0.5, 1.0% IN DIET FOR 104 WK (STUDY DURATION: 106 WK), Dose: 0, 0.5, 1.0% IN DIET FOR 104 WK (STUDY DURATION: 106 WK), Tumor Site: Type of Lesion: NASAL CAVITY: OLFACTORY NEUROBLASTOMA, URINARY BLADDER: NEOPLASM (NOS) OR PAPILLARY CARCINOMA OR SQUAMOUS CELL CARCINOMA) was “active; positive”; the carcinogen call (Species: RAT, Strain/Sex: F344/MALE, Route: ORAL, Dose: 0, 0.5, 1.0% IN DIET FOR 104 WK (STUDY DURATION: 105-106 WK), Dose: 0, 0.5, 1.0% IN DIET FOR 104 WK (STUDY DURATION: 105-106 WK), Tumor Site: Type of Lesion: NASAL CAVITY: NEUROBLASTOMA OR OLFACTORY NEUROBLASTOMA, LIVER: NEOPLASTIC NODULE OR HEPATOCELLULAR CARCINOMA OR MIXED HE) is “active; positive”.

Turning to `C[C@]12CC[C@@H]3c4ccc(O)c(O)c4CC[C@H]3[C@@H]1CC[C@@H]2O`, the carcinogen call was “active; positive” under setting [1]; “inactive; negative; nonneoplastic changes observed” (Species: Mouse, Strain/Sex: CD-1/Female (45/experimental group; 40/control group), Route: Subcutaneous, Dose: 0, 2 ug in peanut oil, dosed on days 1-5 of life and retained for 1.5 (4 animals), 3 (4 animals), 6 (4 animals), 9 (4 an, Dose: 0, 2 ug in peanut oil, dosed on days 1-5 of life and retained for 1.5 (4 animals), 3 (4 animals), 6 (4 animals), 9 (4 an, Tumor Site: Type of Lesion: Uterus and ovaries examined).
